Data as given in US20240262865A1, “Calcium independent phosphatidylserine binding compounds for detecting phosphatidylserine positive cells” (priority 2023, published 2024).
BODIPY = fluorogenic core (…diaza-s-indacene), attached to Trp by a spacer-free C—C linkage

Legend:
[1] = test system: PS positive cells; experiment: Flow cytometry of Atto 647 Item-2 stained U937 cells before and after 2% PFA fixation; type: cell-based; conditions: U937 cells in PBS without Ca2+
Method: In order to validate if the PS positive cells stained with Atto 647 Item-2 are fixable, the fresh and 2 days IL-4 stimulated U937 cells were simultaneously stained with 28 pM/test of Atto 647 Item-2 and 20 nM of Sytox Blue, then the cells were split into two sets. One set of cells were analyzed with flow cytometry right after staining without wash, the other set of cells were fixed by adding 16% of Paraformaldehyde (PFA) to the final concentration at 2% PFA for 10 minutes at room temperature followed by centrifugation at 350 g for 5 minutes. Then the cells were resuspended in PBS without Ca^2+. The fresh cells and stimulated cells with or without fixation were analyzed on day 0 and day 2 respectively. The cells were analyzed with NovoCyte Quanteon flow cytometry without wash.

[2] = test system: PS positive cells; experiment: Flow cytometry staining of PS positive cells on one day old mouse thymocytes, side by side with Apotracker Green and Annexin V; type: cell-based; conditions: one day old C57BL/6 mouse thymocytes, Atto 647 Item-2 28 pM/test and Apotracker 400 nM/test in PBS without Ca2+, Alexa 647 Annexin V in Annexin V binding buffer, Sytox Blue
Source text: Whether an agent is considered to be a PS binding agent or to have a PS binding activity, it can be determined by using a flow cytometer to detect the PS binding activity of said agent which has been illustrated in the art. Thereby, PS positive cells can be used in such an assay, wherein the number of stained cells may be compared to the reference agent Apotracker Green and/or Annexin V, in accordance with the present invention.
To validate the Atto 647 Item-2 by flow cytometry, one day old C57BLU6 mouse thymocytes were side by side incubated with 28 pM/test of Atto 647 Item-2 and Sytox Blue or 400 nM/test of Apotracker and Sytox Blue in PBS without Ca^2+ or 5 μLtest of Alexa 647 Annexin V and of Sytox Blue in Annexin V binding buffer for 15 minutes at room temperature, then the cells were analyzed with NovoCyte Quanteon flow cytometry without wash. Debris were gated out based on cell density plot in a lower level of forward scatter. The two-parameter density plots show Atto 647 Item-2 or Apotracker Green or Annexin V versus Sytox Blue. Sytox Blue is an impermeant blue-emitting nucleic acid indicator which is used for indicating the dead cells. Sytox Blue was used at 20 nM/test in herein.
The cells were analyzed with NovoCyte Quanteon flow cytometry without wash.

Row | Molecule | calcium dependence of PS binding [1] | staining pattern and frequencies of PS positive dying cells and dead cells [2]
1 | Item-2: PS binding compound derivative comprising SEQ ID NO: 2 [RKKWFWC], head-to-tail cyclized (head-to-tail cyclized) | Ca^2+ independent | –
2 | Apotracker Green: cyclic peptide of SEQ ID NO: 1 [RKKWFW(BODIPY)G]; calcium-independent PS binding agent, commercial name Apotracker Green (cyclo(RKKWFW(BODIPY)G)) [reference compound] | – | comparable to each other
3 | Annexin V: recombinant protein, PS binding agent binding PS in the presence of calcium; used as Alexa 647 conjugate (protein, UniProt P08758 2-320, looked up, Alexa 647 label, used as Alexa 647 conjugate) Annexin A5: AQVLRGTVTDFPGFDERADAETLRKAMKGLGTDEESILTLLTSRSNAQRQEISAAFKTLFGRDLLDDLKSELTGKFEKLIVALMKPSRLYDAYELKHALKGAGTNEKVLTEIIASRTPEELRAIKQVYEEEYGSSLEDDVVGDTSGYYQRMLVVLLQANRDPDAGIDEAQVEQDAQALFQAGELKWGTDEEKFITIFGTRSVSHLRKVFDKYMTISGFQIEETIDRETSGNLEQLLLAVVKSIRSIPAYLAETLYYAMKGAGTDDHTLIRVMVSRSEIDLFNIRKEFRKNFATSLYSMIKGDTSGDYKKALLLLCGEDD | – | comparable to each other
